Data published in patent US20220105150A1, “AMPHIPATHIC ALPHA-HELICAL ANTIMICROBIAL PEPTIDES TREAT INFECTIONS BY GRAM-NEGATIVE PATHOGENS” (priority 2019, published 2022).
In brackets after ≈: the same amount, converted by molar mass. Square brackets hold non-standard residues; d marks the D form. Peptide text beside a SMILES is read from it. Dap = NC[C@H](N)C(=O)O

Legend:
[1] = test system: Acinetobacter baumannii strains resistant to Polymyxin B and Colistin; conditions: strains resistant to Polymyxin B and Colistin, 24 h
Source text: The coupling procedure used 5 equivalents of Fmoc-D-amino acid or Fmoc-L-amino acid and HCTU (O-(1H-6-chlorobenzotriazole-1-yl)-1,1,3,3-tetramethyluronium hexafluorophosphate) and 6-Cl-HOBt (1-hydroxy-6-chloro-benztriazole) at 4.5 equivalents in DMF (Fisher Scientific, Denver, Colo.) and N-diisopropylethylamine (DIPEA) 10 equivalents (Oakwood Products, Inc., Estill, S.C.) in N-methyl-2-pyrrolidinone (NMP) (Fisher Scientific, Denver, Colo.) with the first and second couplings at room temperature for 30 min each. The deprotection procedure (removal of Fmoc protecting group) was carried out by treatment of the resin with 0.1 M HOBt (1-hydroxybenzotriazole) in DMF with 20% piperidine for 30 min. […] The resin was removed by filtration and peptide was precipitated with ice-cooled ethyl ether on ice for 15 min. Ether was decanted, the peptide was washed twice with ether and redissolved in acetonitrile/water (1:1, with 0.2% TFA) and the solution lyophilized to obtain the crude peptide. • Analytical and Preparative Purification by Reversed-Phase Chromatography: Analytical RP-HPLC: Column, Luna C18 (2), 250×4.6 mm I.D., 5 μm particle size, 100 Å pore size from Phenomenex (Torrance, Calif.). Run conditions: linear AB gradient (1% acetonitrile/min, starting from 2% acetonitrile) at a flow-rate of 1 ml/min, where eluent A is 0.2% aq. TFA and eluent B is 0.18% TFA in acetonitrile; temperature, 30° C. Preparative RP-HPLC: Peptides were dissolved in 0.2% aq. TFA containing 2% acetonitrile to a final concentration of 10 mg/ml. Following filtration through a 0.45 μm Millipore filter and subsequently through a 0.22 μm filter, the peptide solutions were loaded onto the column via multiple 20-ml injections into a 20-ml injection loop at a flow-rate of 10 ml/min. Column, Luna C18 (2), 250×30 mm I.D., 5 um particle size, 100 Å pore size from Phenomenex. Run conditions: 2% acetonitrile/min gradient up to an acetonitrile concentration 10% below that required to elute the peptide during analytical RP-HPLC, then shallow gradient elution (0.05% or 0.1% acetonitrile/min depending on the complexity of impurities near the product of interest on the analytical run of the crude peptide) at a flow-rate of 10 ml/min (same eluents as shown above for analytical RP-HPLC); at room temperature. • Temperature Profiling of Peptides on Reversed-phase HPLC to Measure Dimerization and Oligomerization: Purified peptides were analyzed on an Agilent 1200 series liquid chromatograph for temperature profiling using a Zorbax 300 SB-C8 column (150 mm×2.1 mm I.D.; 5 μm particle size, 300 Å pore size) from Agilent Technologies. […] Temperature profiling was carried out on peptide mixtures run at each temperature in 2° C. increments from 5° C. to 41° C. and 10° C. increments from 5° C. to 75° C. Twenty minutes was allowed between runs for temperature equilibration. • Characterization of Helical Structure: The mean residue molar ellipticities of peptides were determined by circular dichroism (CD) spectroscopy, using a Jasco J-815 spectropolarimeter (Jasco Inc. Easton, Md., USA) at 5° C. under KP buffer (50 mM NaH2PO4/Na2HPO4/100 mM KCl, pH 7.0) as well as in the presence of an α-helix inducing solvent, 2,2,2-trifluoroethanol, TFE, (50 mM NaH2PO4/Na2HPO4/100 mM KCl, pH 7.0 buffer/50% TFE). A 10-fold dilution of an approximately 500 μM stock solution of the peptide analogs was loaded into a 0.1 cm quartz cell and its ellipticity scanned from 195 to 250 nm.

[2] = test system: Acinetobacter baumannii isolates resistant to classical antibiotics; assay type: cell-based; conditions: isolates resistant to classical antibiotics
Source text: Thus, shortening the number of carbon atoms between the side-chain amino group and the α-carbon atom from four (Lys) to one (diaminopropionic acid) had very little effect on antibacterial activity (Table 2). We also determined the antibacterial activity of our five AMPs against 20 additional Acinetobacter baumannii isolates from four continents, 12 different countries and 17 different cities that were resistant to 18 different antibiotics. […] Thus, it is very clear that changing the type of positively-charged residue on the polar face of these AMPs had very little effect on the antibacterial activities.

MIC MB9941 [1] [µM]	MIC MB9949 [1] [µM]	MIC MB9951 [1] [µM]	MIC MB9952 [1] [µM]	MIC MB9953 [1] [µM]	MIC MB9955 [1] [µM]	MIC MB9963 [1] [µM]	MIC 101887 [2] [µM]	MIC 961997 [2] [µM]	MIC 963618 [2] [µM]	MIC 964304 [2] [µM]	MIC 977751 [2] [µM]	MIC 981653 [2] [µM]	MIC 1002956 [2] [µM]	MIC 1007660 [2] [µM]	MIC 1010282 [2] [µM]	MIC 1035166 [2] [µM]	SMILES
0.3 (≈ 0.86 µg/mL)	0.7 (≈ 2.01 µg/mL)	0.3 (≈ 0.86 µg/mL)	0.7 (≈ 2.01 µg/mL)	0.7 (≈ 2.01 µg/mL)	0.3 (≈ 0.86 µg/mL)	0.7 (≈ 2.01 µg/mL)	0.7 (≈ 2.01 µg/mL)	1.4 (≈ 4.01 µg/mL)	0.7 (≈ 2.01 µg/mL)	1.4 (≈ 4.01 µg/mL)	0.3 (≈ 0.86 µg/mL)	0.7 (≈ 2.01 µg/mL)	0.3 (≈ 0.86 µg/mL)	0.3 (≈ 0.86 µg/mL)	0.7 (≈ 2.01 µg/mL)	0.7 (≈ 2.01 µg/mL)	CC(=O)N[C@H](CCCCN)C(=O)N[C@H](CC(C)C)C(=O)N[C@H](CCCCN)C(=O)N[C@H](CO)C(=O)N[C@H](CC(C)C)C(=O)N[C@H](CC(C)C)C(=O)N[C@H](CCCCN)C(=O)N[C@@H](C(=O)N[C@H](CC(C)C)C(=O)N[C@H](CO)C(=O)N[C@H](CCCCN)C(=O)N[C@H](C)C(=O)N[C@H](CCCCN)C(=O)N[C@H](C)C(=O)N[C@H](C)C(=O)N[C@H](CCCCN)C(=O)N[C@H](CC(C)C)C(=O)N[C@H](CCCCN)C(=O)N[C@@H](C(=O)N[C@H](CC(C)C)C(=O)N[C@H](CC(C)C)C(=O)N[C@H](CCCCN)C(=O)N[C@H](C)C(=O)N[C@H](CC(C)C)C(=O)N[C@H](CO)C(=O)N[C@H](CCCCN)C(N)=O)[C@H](C)O)[C@H](C)O [D84(Lys^1-6Lys-1), Ac-KL(Lys)SLL(Lys)TLS(Lys)AKAAKL(Lys)TLL(Lys)ALS(Lys)-amide]
0.7 (≈ 1.98 µg/mL)	0.7 (≈ 1.98 µg/mL)	0.7 (≈ 1.98 µg/mL)	0.7 (≈ 1.98 µg/mL)	1.5 (≈ 4.24 µg/mL)	0.7 (≈ 1.98 µg/mL)	0.7 (≈ 1.98 µg/mL)	1.4 (≈ 3.95 µg/mL)	1.4 (≈ 3.95 µg/mL)	0.7 (≈ 1.98 µg/mL)	1.4 (≈ 3.95 µg/mL)	0.7 (≈ 1.98 µg/mL)	0.7 (≈ 1.98 µg/mL)	0.7 (≈ 1.98 µg/mL)	0.7 (≈ 1.98 µg/mL)	1.4 (≈ 3.95 µg/mL)	1.4 (≈ 3.95 µg/mL)	CC(=O)N[C@H](CCCCN)C(=O)N[C@H](CC(C)C)C(=O)N[C@H](CCCCN)C(=O)N[C@H](CO)C(=O)N[C@H](CC(C)C)C(=O)N[C@H](CC(C)C)C(=O)N[C@H](CCCCN)C(=O)N[C@@H](C(=O)N[C@H](CC(C)C)C(=O)N[C@H](CO)C(=O)N[C@H](CCCCN)C(=O)N[C@H](C)C(=O)N[C@H](CCCCN)C(=O)N[C@H](C)C(=O)N[C@H](C)C(=O)N[C@H](CCCCN)C(=O)N[C@H](CC(C)C)C(=O)N[C@H](CCCCN)C(=O)N[C@@H](C(=O)N[C@H](CC(C)C)C(=O)N[C@H](CC(C)C)C(=O)N[C@H](CCCCN)C(=O)N[C@H](C)C(=O)N[C@H](CC(C)C)C(=O)N[C@H](CO)C(=O)N[C@H](CO)C(N)=O)[C@H](C)O)[C@H](C)O [D101(Lys^1Ser^26-5Lys-1), Ac-KL(Lys)SLL(Lys)TLS(Lys)AKAAKL(Lys)TLL(Lys)ALS(Ser)-amide]
0.8 (≈ 2.09 µg/mL)	0.8 (≈ 2.09 µg/mL)	1.5 (≈ 3.92 µg/mL)	0.8 (≈ 2.09 µg/mL)	0.8 (≈ 2.09 µg/mL)	0.4 (≈ 1.05 µg/mL)	0.8 (≈ 2.09 µg/mL)											CC(=O)N[C@H](CCCCN)C(=O)N[C@H](CC(C)C)C(=O)N[C@@H](CN)C(=O)N[C@H](CO)C(=O)N[C@H](CC(C)C)C(=O)N[C@H](CC(C)C)C(=O)N[C@@H](CN)C(=O)N[C@@H](C(=O)N[C@H](CC(C)C)C(=O)N[C@H](CO)C(=O)N[C@H](C)C(=O)N[C@H](C)C(=O)N[C@H](CCCCN)C(=O)N[C@@H](CN)C(=O)N[C@@H](CN)C(=O)N[C@H](CCCCN)C(=O)N[C@H](CC(C)C)C(=O)N[C@H](C)C(=O)N[C@@H](C(=O)N[C@H](CC(C)C)C(=O)N[C@H](CC(C)C)C(=O)N[C@@H](CN)C(=O)N[C@H](C)C(=O)N[C@H](CC(C)C)C(=O)N[C@H](CO)C(=O)N[C@@H](CN)C(N)=O)[C@H](C)O)[C@H](C)O [D106(Lys^1-6 Dap-2), Ac-KL(L-Dap)SLL(L-Dap)TLSAAK(L-Dap)(L-Dap)KLATLL(L-Dap)ALS(L-Dap)-amide] (Ac-[dK][dL][Dap][dS][dL][dL][Dap][dT][dL][dS][dA][dA][dK][Dap][Dap][dK][dL][dA][dT][dL][dL][Dap][dA][dL][dS][Dap]-NH2)
